In ChEMBL document CHEMBL4483862, “Open-source discovery of chemical leads for next-generation chemoprotective antimalarials” (2018):

Tested on: Plasmodium berghei
Assay: Luciferase/luciferin-expressing antifolate-resistant parasites were used to infect a culture of HepG2 cells that were pre-incubated with compounds. Infected hepatocytes emit light due to the luciferase reaction. Assay results are presented as the percent inhibition of light emission compared to control. […]
Assay type: functional
Details: sporozoite; for IC90: read-out: LUCIFERASE INFECTION ASSAY - IC90

SMILES | IC90 | further results
Cc1ccc(-n2c(C)cc(C(=O)COc3c(CO)cc(F)cc3CO)c2C)cc1C | > 10 µM | IC50 (PBLUC_HILL_SLOPE 1.7, PBLUC_R_SQUARED 0.588, read-out: LUCIFERASE INFECTION ASSAY - IC50): 6.56 µM
CCOC(=O)c1c(C)[nH]c(C(=O)CSc2nnc(C3CC3)n2N)c1C | 0.847 µM | IC50 (PBLUC_HILL_SLOPE 1.71, PBLUC_R_SQUARED 0.964, read-out: LUCIFERASE INFECTION ASSAY - IC50): 0.235 µM
O=C1CCN(Cc2ccc(Cl)cc2)N1 | > 15.7 µM | IC50 (PBLUC_HILL_SLOPE 1.7, PBLUC_R_SQUARED 0.276, read-out: LUCIFERASE INFECTION ASSAY - IC50): 14.1 µM
Oc1cc(C(F)(F)F)nc2ccc(F)cc12 | > 14.3 µM | IC50 (PBLUC_HILL_SLOPE 1.66, PBLUC_R_SQUARED 0.446, read-out: LUCIFERASE INFECTION ASSAY - IC50): 6.54 µM
Cc1cc(C(=O)COc2cccnc2[N+](=O)[O-])c(C)n1-c1ccc2c(c1)OCO2 | > 10 µM | IC50 (PBLUC_HILL_SLOPE 1.7, PBLUC_R_SQUARED 0.197, read-out: LUCIFERASE INFECTION ASSAY - IC50): 8.75 µM
O=C(Nc1ccccc1Cc1ccccc1)c1cc2c(nc3sccn32)s1 | 4.88 µM | IC50 (PBLUC_HILL_SLOPE 1.68, PBLUC_R_SQUARED 0.818, read-out: LUCIFERASE INFECTION ASSAY - IC50): 1.32 µM
COc1ccc(C(N)=O)c(OCCOc2ccc(C(C)C)c(C)c2)c1 | > 10 µM | IC50 (PBLUC_HILL_SLOPE 1.7, PBLUC_R_SQUARED 0.184, read-out: LUCIFERASE INFECTION ASSAY - IC50): 4.61 µM
Cc1cc(N2CCN(CCO)CC2)n2ncc(-c3ccc(F)cc3)c2n1 | 7.96 µM | IC50 (PBLUC_HILL_SLOPE 1.69, PBLUC_R_SQUARED 0.874, read-out: LUCIFERASE INFECTION ASSAY - IC50): 2.17 µM
Cc1c(C(=O)Nc2nc(CN3CC(C)CC(C)C3)cs2)[nH]c2c1C(=O)CC(C)(C)C2 (stereo not given) | 9.99 µM | IC50 (PBLUC_HILL_SLOPE 1.7, PBLUC_R_SQUARED 0.746, read-out: LUCIFERASE INFECTION ASSAY - IC50): 2.74 µM
CC(CC(=O)Nc1ccc(Cl)cc1)NCC(C)(C)N1CCOCC1 (stereo not given) | > 10 µM | IC50 (PBLUC_HILL_SLOPE 1.7, PBLUC_R_SQUARED 0.0143, read-out: LUCIFERASE INFECTION ASSAY - IC50): 4.7 µM
O=C(O/N=C(\Nc1ccc(OC(F)(F)F)cc1)c1c(Cl)cccc1Cl)c1ccccc1C(F)(F)F | > 6.14 µM | IC50 (PBLUC_HILL_SLOPE 1.69, PBLUC_R_SQUARED 0.564, read-out: LUCIFERASE INFECTION ASSAY - IC50): > 6.14 µM
CC(NC(=S)N/N=C/c1cc(Cl)cc(Cl)c1O)c1ccccc1 (stereo not given) | 8.46 µM | IC50 (PBLUC_HILL_SLOPE 1.69, PBLUC_R_SQUARED 0.56, read-out: LUCIFERASE INFECTION ASSAY - IC50): 2.31 µM
CC(=O)Nc1ccc(OCc2ccccc2C(F)(F)F)cc1 | 5.57 µM | IC50 (PBLUC_HILL_SLOPE 1.68, PBLUC_R_SQUARED 0.57, read-out: LUCIFERASE INFECTION ASSAY - IC50): 1.51 µM
CCN(CC)CCNc1cc(-c2cccs2)nc2ccccc12 | > 10.1 µM | IC50 (PBLUC_HILL_SLOPE 1.7, PBLUC_R_SQUARED 0.474, read-out: LUCIFERASE INFECTION ASSAY - IC50): 3.96 µM
O=[N+]([O-])c1cc(/C=N/O)ccc1Oc1ccc(Cl)cc1 | > 11.3 µM | IC50 (PBLUC_HILL_SLOPE 1.72, PBLUC_R_SQUARED 0.416, read-out: LUCIFERASE INFECTION ASSAY - IC50): 6.18 µM
CN(CC(=O)NC1CC1)C(=O)CNc1ccccc1Oc1ccccc1 | 4.68 µM | IC50 (PBLUC_HILL_SLOPE 1.7, PBLUC_R_SQUARED 0.39, read-out: LUCIFERASE INFECTION ASSAY - IC50): 1.29 µM
CS(=O)(=O)Nc1cccc(-c2cn3c(-c4ccc5c(c4)OCO5)cnc3cn2)c1 | > 8.08 µM | IC50 (PBLUC_HILL_SLOPE 1.71, PBLUC_R_SQUARED 0.507, read-out: LUCIFERASE INFECTION ASSAY - IC50): 6.08 µM
Cc1[nH]ncc1CCCNc1nc(-c2ccsc2)nc2ccccc12 | > 10 µM | IC50 (PBLUC_HILL_SLOPE 1.72, 3.12, PBLUC_R_SQUARED 0.159, 0.360, read-out: LUCIFERASE INFECTION ASSAY - IC50): 5.35 µM
O=C(Nc1ncccc1O)c1ccc(-n2cnc3ccccc32)cc1 | 6.03 µM | IC50 (PBLUC_HILL_SLOPE 1.70, 2.04, PBLUC_R_SQUARED 0.693, 0.681, read-out: LUCIFERASE INFECTION ASSAY - IC50): 1.8 µM
CN(C)Cc1ccccc1CNC(=O)Nc1ccc(Cl)c(Cl)c1 | > 2 µM | IC50 (PBLUC_HILL_SLOPE 1.7, PBLUC_R_SQUARED 0.0619, read-out: LUCIFERASE INFECTION ASSAY - IC50): 0.986 µM

SMILES | IC90 | further results
Cc1sc2nc(-c3cccnc3)nc(NCCc3ccc(S(N)(=O)=O)cc3)c2c1C | > 10 µM | IC50 (PBLUC_HILL_SLOPE 1.71, PBLUC_R_SQUARED 0.31, read-out: LUCIFERASE INFECTION ASSAY - IC50): 7.09 µM
Clc1ccc(-c2csc3ncnc(Sc4nnc(N5CCOCC5)n4C4CC4)c23)cc1 | > 10 µM | IC50 (PBLUC_HILL_SLOPE 1.69, PBLUC_R_SQUARED 0.173, read-out: LUCIFERASE INFECTION ASSAY - IC50): 7.1 µM
O=C(Nc1ncccc1O)c1ccc(CN2C(=O)c3ccccc3S2(=O)=O)cc1 | > 10 µM | IC50 (PBLUC_HILL_SLOPE 1.72, 0.775, PBLUC_R_SQUARED 0.614, 0.500, read-out: LUCIFERASE INFECTION ASSAY - IC50): 4.22 µM
CCCc1nc2ccccc2n1CC(=O)N1N=C(c2ccc(Cl)cc2)CC1c1ccco1 (stereo not given) | > 10 µM | IC50 (PBLUC_HILL_SLOPE 1.73, PBLUC_R_SQUARED 0.265, read-out: LUCIFERASE INFECTION ASSAY - IC50): > 10 µM
Cc1ccccc1C(=O)OCC(=O)c1cc(C)n(Cc2ccco2)c1C | 3.07 µM | IC50 (PBLUC_HILL_SLOPE 1.7, PBLUC_R_SQUARED 0.868, read-out: LUCIFERASE INFECTION ASSAY - IC50): 0.843 µM
CCOC(=O)C1=C(C)NC(C)=C(C(=O)OCC)C1c1ccc(Cl)cc1Cl | > 8.29 µM | IC50 (PBLUC_HILL_SLOPE 1.65, PBLUC_R_SQUARED 0.211, read-out: LUCIFERASE INFECTION ASSAY - IC50): > 8.29 µM
CN(c1ccccc1)S(=O)(=O)c1ccc(C(=O)N2CCN(Cc3ccc(Cl)s3)CC2)cc1 | > 10 µM | IC50 (PBLUC_HILL_SLOPE 1.66, PBLUC_R_SQUARED 0.494, read-out: LUCIFERASE INFECTION ASSAY - IC50): 8.02 µM
COc1ccccc1/C=C(\C#N)c1ccc(C)cc1 | > 13.2 µM | IC50 (PBLUC_HILL_SLOPE 1.71, PBLUC_R_SQUARED 0.0423, read-out: LUCIFERASE INFECTION ASSAY - IC50): 10.6 µM
C/C(=N\OCc1ccccc1)c1cc(-c2ccccc2)c(C(F)(F)F)s1 | > 8.79 µM | IC50 (PBLUC_HILL_SLOPE 1.7, PBLUC_R_SQUARED 0.604, read-out: LUCIFERASE INFECTION ASSAY - IC50): 4.91 µM
CN(Cc1ccccc1Cl)C(=O)c1ccc(NC(=O)c2ccco2)cc1 | > 10 µM | IC50 (PBLUC_HILL_SLOPE 1.69, PBLUC_R_SQUARED 0.585, read-out: LUCIFERASE INFECTION ASSAY - IC50): 7.96 µM
CCn1c(SCCOc2ccccc2Cl)nnc1-c1cc(-c2ccccc2)nc2ccccc12 | > 10 µM | IC50 (PBLUC_HILL_SLOPE 1.65, PBLUC_R_SQUARED 0.274, read-out: LUCIFERASE INFECTION ASSAY - IC50): > 10 µM
O=C(Nc1ccnn1Cc1ccccc1)c1ccc(C(=O)c2ccccc2)cc1 | > 10 µM | IC50 (PBLUC_HILL_SLOPE 1.71, PBLUC_R_SQUARED 0.158, read-out: LUCIFERASE INFECTION ASSAY - IC50): 5.74 µM
Cn1cc(-c2cnc3ccc(Cc4ccc(F)cc4)nn23)cn1 | > 10 µM | IC50 (PBLUC_HILL_SLOPE 1.72, PBLUC_R_SQUARED 0.782, read-out: LUCIFERASE INFECTION ASSAY - IC50): 4.99 µM
CC12CCC(C(=O)N3CCN(c4cccc(Cl)c4)CC3)(OC1=O)C2(C)C (stereo not given) | > 8.76 µM | IC50 (PBLUC_HILL_SLOPE 1.72, PBLUC_R_SQUARED 0.0862, read-out: LUCIFERASE INFECTION ASSAY - IC50): > 8.76 µM
CCCC/C=C/c1cnc2ccc(NC(CC)CO)nn12 (stereo not given) | > 11.4 µM | IC50 (PBLUC_HILL_SLOPE 1.69, PBLUC_R_SQUARED 0.254, read-out: LUCIFERASE INFECTION ASSAY - IC50): 7.08 µM
CC(C)n1ncc2cc(NC(=O)c3cccc(S(=O)(=O)NCc4ccccc4)c3)cnc21 | > 10 µM | IC50 (PBLUC_HILL_SLOPE 1.68, PBLUC_R_SQUARED 0.408, read-out: LUCIFERASE INFECTION ASSAY - IC50): 6.12 µM
CN(CC(=O)Nc1nnc(-c2ccccc2)o1)Cc1ccccc1C(F)(F)F | 3.69 µM | IC50 (PBLUC_HILL_SLOPE 1.69E+03, PBLUC_R_SQUARED 0.413, read-out: LUCIFERASE INFECTION ASSAY - IC50): 3.69 µM
COc1ccc(C(CNC(=O)c2ccc(Oc3ccc(Cl)cc3[N+](=O)[O-])cc2)N2CCCC2)cc1 (stereo not given) | > 10 µM | IC50 (PBLUC_HILL_SLOPE 1.72, PBLUC_R_SQUARED 0.19, read-out: LUCIFERASE INFECTION ASSAY - IC50): 6.08 µM
O=C(Nc1ccc2c(c1)OCO2)c1cnc(N2CCN(Cc3ccc(Cl)cc3)C2=O)o1 | > 10 µM | IC50 (PBLUC_HILL_SLOPE 1.65, PBLUC_R_SQUARED 0.722, read-out: LUCIFERASE INFECTION ASSAY - IC50): 3.79 µM
FC(F)(F)c1cccc(Nc2nnnc3ccccc23)c1 | 3.71 µM | IC50 (PBLUC_HILL_SLOPE 1.72, PBLUC_R_SQUARED 0.746, read-out: LUCIFERASE INFECTION ASSAY - IC50): 1.03 µM
